“Also recorded” adds a separate entry of the source. One block for each molecule: values may come before it.
Tests used:
collagenase expression = assay: Effect of other anti-microtubules on IL-1 induced collagenase expression in primary chondrocytes; assay type: cell-based, calf; settings: pre-incubation 6 hours, IL-1 20 ng/ml 18 hours; FIGS. 5A-H
Experimental: Primary chondrocyte cultures were freshly isolated from calf cartilage. The cells were plated at 2.5×10^6 per ml in 100×20 mm culture dishes and incubated in Ham's F12 medium containing 5% FBS overnight at 37° C. The cells were starved in serum-free medium overnight and then treated with anti-microtubule agents at various concentrations for 6 hours. IL-1 (20 ng/ml) was then added to each plate and the plates incubated for an additional 18 hours. Total RNA was isolated by the acidified guanidine isothiocyanate method and subjected to electrophoresis on a denatured gel. Denatured RNA samples (15 μg) were analyzed by gel electrophoresis in a 1% denatured gel, transferred to a nylon membrane and hybridized with the ^32P-labeled collagenase cDNA probe. ^32P-labeled glyceraldehyde phosphate […] (GAPDH) cDNA as an internal standard to ensure roughly equal loading. The exposed films were scanned and quantitatively analyzed with IMAGEQUANT.

human fibroblasts = assay: Screening assay, cell proliferation of fibroblasts (CYQUANT); assay type: cell-based; settings: Fibroblast, 72 hours, average of n=4 experiments, FIG. 8
[1] = tested on: AP-1 DNA binding activity; assay: IL-1 induced AP-1 DNA binding activity, gel mobility shift with chondrocyte extracts; assay type: cell-based; settings: chondrocytes pretreated with 10^−7 to 10^−5 M for 24 hours, IL-1β 20 ng/ml; FIG. 4C
Experimental: Binding activity was assayed with a radiolabeled human AP-1 sequence probe and gel mobility shift assay. Extracts from chondrocytes untreated or treated with various amounts of paclitaxel (10^−7 to 10^−5 M) followed by IL-1β (20 ng/ml) were incubated with excess probe on ice for 30 minutes, followed by non-denaturing gel electrophoresis. The “com” lane contains excess unlabeled AP-1 oligonucleotide. The results shown are representative of three independent experiments.

[2] = tested on: Chick Chorioallantoic Membrane (CAM); assay: Chick chorioallantoic membrane (CAM) angiogenesis assay
MMP-3 mRNA (stromelysin) = assay: IL-1 induced MMP-3 (stromelysin) mRNA expression in chondrocytes, Northern blot; settings: pretreatment 24 hours
MMP-1 mRNA (collagenase) = assay: IL-1 induced MMP-1 (collagenase) mRNA expression in chondrocytes, Northern blot; settings: pretreatment 24 hours

Structure (SMILES): Nc1ncnc2c1ccn2[C@@H]1O[C@H](CO)[C@@H](O)[C@H]1O [tubercidin]
- concentration (as low as) preventing IL-1-induced collagenase expression (collagenase expression): 100 nM

- IL-1 induced AP-1 binding activity [1]: IL-1 induced binding activity decreased
- collagenase mRNA inhibition at 10^−5 M (MMP-1 mRNA (collagenase); 10^−5 M paclitaxel): complete inhibition
Structure (SMILES): CC(=O)O[C@H]1C(=O)[C@@]2(C)[C@H]([C@H](OC(=O)c3ccccc3)[C@]3(O)C[C@H](OC(=O)[C@H](O)[C@@H](NC(=O)c4ccccc4)c4ccccc4)C(C)=C1C3(C)C)[C@]1(OC(C)=O)CO[C@@H]1C[C@@H]2O [paclitaxel]
- IC50 (human fibroblasts): 23 nM
- angiogenesis in the CAM ([2]; 48 hours after application): angiogenesis was inhibited
- maximal avascular zone, avascular gradient scale ([2]; within 48 hours, depending on concentration): 3
- stromelysin mRNA inhibition at 10^−5 M (MMP-3 mRNA (stromelysin); 10^−5 M paclitaxel): complete inhibition
- stromelysin mRNA levels (MMP-3 mRNA (stromelysin); then IL-1β, FIG. 4D): inhibited by pretreatment with paclitaxel; also recorded: significantly reduced
- collagenase mRNA levels (MMP-1 mRNA (collagenase); then IL-1β, FIG. 4D): inhibited by pretreatment with paclitaxel; also recorded: significantly reduced

Structure (SMILES): O=C(CCC(=O)ON1C(=O)CCC1=O)OCCOC(=O)CCC(=O)ON1C(=O)CCC1=O [ethylene glycol bis-(succinimidylsuccinate)]
- concentration (as low as) preventing IL-1-induced collagenase expression (collagenase expression): 100 nM

Structure (SMILES): CC(O)CC(C)(C)O (centres unmarked) [hexylene glycol]
- concentration (as low as) preventing IL-1-induced collagenase expression (collagenase expression): 100 nM

Source: patent USH2260H1, “Stents combined with paclitaxel derivatives” (Angiotech International AG, priority 2005, dated 2011)
